According to BigSolDB 2.1:

CCCCCCCCCCCC[N+](C)(C)CCOc1ccccc1.[Br-]
solubility (mole fraction)
Conditions | 283.15 K | 288.15 K | 293.15 K | 298.15 K | 303.15 K | 308.15 K | 313.15 K | 318.15 K | 323.15 K
in DMAc | 0.0168 | 0.0216 | 0.0306 | 0.0416 | 0.0492 | 0.0659 | 0.0786 | 0.105 | 0.121
in DMF | 0.0238 | 0.0292 | 0.039 | 0.0467 | 0.0609 | 0.0714 | 0.0861 | 0.115 | 0.132
in DMSO | – | – | 0.037 | 0.045 | 0.0551 | 0.0668 | 0.0826 | 0.103 | 0.124
in NMP | 0.0215 | 0.0284 | 0.042 | 0.0531 | 0.0702 | 0.0854 | 0.108 | 0.137 | 0.169
in acetonitrile | 0.00445 | 0.00562 | 0.00743 | 0.00991 | 0.0135 | 0.0188 | 0.0277 | 0.0415 | 0.0625
in ethanol | 0.0832 | 0.107 | 0.13 | 0.157 | 0.179 | 0.204 | 0.227 | 0.251 | 0.275
in isobutanol | – | 0.092 | 0.118 | 0.145 | 0.175 | 0.196 | 0.224 | 0.248 | 0.287
in isopropanol | 0.0234 | 0.043 | 0.07 | 0.105 | 0.139 | 0.17 | 0.199 | 0.228 | 0.258
in n-butanol | 0.0833 | 0.108 | 0.134 | 0.157 | 0.181 | 0.224 | 0.263 | 0.306 | 0.346
in n-pentanol | 0.0801 | 0.108 | 0.13 | 0.164 | 0.192 | 0.232 | 0.272 | 0.329 | 0.373
in n-propanol | 0.0834 | 0.107 | 0.131 | 0.157 | 0.181 | 0.211 | 0.238 | 0.263 | 0.287
in tert-butanol | – | – | – | 0.0866 | 0.127 | 0.165 | 0.198 | 0.241 | 0.273
